Broadly, the IC50 is the concentration that inhibits the measured activity by half.

This passage reports IC50 results from patent publication US9914730B2, “Azaquinazoline inhibitors of Atypical protein Kinase C” (Ignyta, Inc., priority 2012, dated 2018).

This test deals with T1, full-length human PKCι (Homo sapiens, UniProt P41743).
T1 construct: Recombinant, full-length human PKCι expressed in Sf21 insect cells is also commercially available; purchased; host or cells: Sf21 insect cells
T1 sequence (P41743 1-596): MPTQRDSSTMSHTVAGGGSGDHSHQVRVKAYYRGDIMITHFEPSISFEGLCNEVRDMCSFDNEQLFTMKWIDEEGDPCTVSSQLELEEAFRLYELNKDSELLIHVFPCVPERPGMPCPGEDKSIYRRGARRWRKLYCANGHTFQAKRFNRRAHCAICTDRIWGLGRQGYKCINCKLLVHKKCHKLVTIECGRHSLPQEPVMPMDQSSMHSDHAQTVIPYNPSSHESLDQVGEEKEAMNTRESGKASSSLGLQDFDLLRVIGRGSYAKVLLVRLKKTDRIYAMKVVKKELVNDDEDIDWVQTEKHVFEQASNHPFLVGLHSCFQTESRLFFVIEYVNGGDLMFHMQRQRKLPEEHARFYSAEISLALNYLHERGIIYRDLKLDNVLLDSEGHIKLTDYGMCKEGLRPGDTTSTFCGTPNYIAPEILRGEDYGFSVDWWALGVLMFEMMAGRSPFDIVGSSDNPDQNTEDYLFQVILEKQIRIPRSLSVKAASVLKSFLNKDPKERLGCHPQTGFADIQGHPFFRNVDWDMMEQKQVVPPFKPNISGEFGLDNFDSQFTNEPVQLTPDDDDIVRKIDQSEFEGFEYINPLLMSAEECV
In words: PKCι IC50 IMAP assay, full-length PKCι at 150 μM ATP. The settings on record: read-out: IC50 in IMAP assay against full length PKCi at 150 μM ATP. In kind it is biochemical. In a few lines: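 Full-length hPKCι (Sf21) ~15 pM; 5FAM-peptide 100 nM; ATP 150 μM (5× KM^APP); tris pH7.5/MgCl2/EGTA/DTT/Triton, 4% DMSO; 60 min RT; IMAP stop, 2 h; FP 485/530 nm; IC50 from % inhibition curves.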
Regarding `CC(C)(C)c1ccc(Nc2cc(-c3nc(N4CCNCC4)c4c(C5CC5)cncc4n3)ccn2)c(Cl)c1` [Example 529, (4-tert-Butyl-2-chloro-phenyl)-[4-(5-cyclopropyl-4-piperazin-1-yl-pyrido[3,4-d]pyrimidin-2-yl)-pyridin-2-yl]-amine], the IC50 was below 100 nM. The value for `N#Cc1ccnc(Nc2cc(-c3nc(N4CCN[C@@H](CF)C4)c4c(C5CC5)cncc4n3)ccn2)c1` [Example 530, 2-{4-[5-Cyclopropyl-4-((R)-3-fluoromethyl-piperazin-1-yl)-pyrido[3,4-d]-pyrimidin-2-yl]-pyridin-2-ylamino}-iso-nicotinonitrile] was below 100 nM; that for `FC[C@H]1CN(c2nc(-c3ccnc(Nc4cccnc4F)c3)nc3cncc(C4CC4)c23)CCN1` [Example 531, {4-[5-Cyclopropyl-4-((R)-3-fluoromethyl-piperazin-1-yl)-pyrido[3,4-d]-pyrimidin-2-yl]-pyridin-2-yl}-(2-fluoro-pyridin-3-yl)-amine] was below 100 nM. Next, `FC(F)(F)CNc1cc(-c2nc(N3CCNCC3)c3c(C4CC4)cncc3n2)ccn1` [Example 532, [4-(5-Cyclopropyl-4-piperazin-1-yl-pyrido[3,4-d]pyrimidin-2-yl)-pyridin-2-yl]-(2,2,2-trifluoro-ethyl)-amine]: below 100 nM; `N#Cc1ccnc(Nc2cc(-c3nc(N4CCN5C(=O)OCC5C4)c4c(C5CC5)cncc4n3)ccn2)c1` (stereo not shown) [Example 533, 2-{4-[5-Cyclopropyl-4-(3-oxo-tetrahydro-oxazolo[3,4-a]pyrazin-7-yl)-pyrido[3,4-d]pyrimidin-2-yl]-pyridin-2-ylamino}-isonicotinonitrile]: 100 to 1000 nM. In the case of `FC(F)(F)c1cccc(Nc2cc(-c3nc(N4CCNCC4)c4c(C5CC5)cncc4n3)ccn2)n1` [Example 534, [4-(5-Cyclopropyl-4-piperazin-1-yl-pyrido[3,4-d]pyrimidin-2-yl)-pyridin-2-yl]-(6-trifluoromethyl-pyridin-2-yl)-amine], the IC50 is below 100 nM.

For `Fc1cncc(Nc2cc(-c3nc(N4CCNCC4)c4c(C5CC5)cncc4n3)ccn2)c1` [Example 535, [4-(5-Cyclopropyl-4-piperazin-1-yl-pyrido[3,4-d]pyrimidin-2-yl)-pyridin-2-yl]-(5-fluoro-pyridin-3-yl)-amine], the IC50 was 100 to 1000 nM. Next, `FC(F)(F)c1ncccc1Nc1cc(-c2nc(N3CCNCC3)c3c(C4CC4)cncc3n2)ccn1` [Example 536, [4-(5-Cyclopropyl-4-piperazin-1-yl-pyrido[3,4-d]pyrimidin-2-yl)-pyridin-2-yl]-(2-trifluoromethyl-pyridin-3-yl)-amine]: 1000 to 10000 nM. Next, `c1ccc(Nc2cc(-c3nc(N4CCNC5CC54)c4c(C5CC5)cncc4n3)ccn2)cc1` (stereo not shown) [Example 537, {4-[5-Cyclopropyl-4-(2,5-diaza-bicyclo-[4.1.0]hept-2-yl)-pyrido[3,4-d]-pyrimidin-2-yl]-pyridin-2-yl}-phenyl-amine]: below 100 nM; `Fc1cccc(F)c1Nc1cc(-c2nc(N3CCNC4CC43)c3c(C4CC4)cncc3n2)ccn1` (stereo not shown) [Example 538, {4-[5-Cyclopropyl-4-(2,5-diaza-bicyclo-[4.1.0]hept-2-yl)-pyrido[3,4-d]pyrimidin-2-yl]-pyridin-2-yl}-(2,6-difluoro-phenyl)-amine]: below 100 nM. Next, `Clc1cccc(Cl)c1Nc1cc(-c2nc(N3CCNCC3)c3c(C4CC4)cncc3n2)ccn1` [Example 539, [4-(5-Cyclopropyl-4-piperazin-1-yl-pyrido[3,4-d]pyrimidin-2-yl)-pyridin-2-yl]-(2,6-dichloro-phenyl)-amine]: below 100 nM; `Cc1cccc(Nc2cc(-c3nc(N4CCNCC4)c4c(C5CC5)cncc4n3)ccn2)c1C` [Example 540, [4-(5-Cyclopropyl-4-piperazin-1-yl-pyrido[3,4-d]pyrimidin-2-yl)-pyridin-2-yl]-(2,3-dimethyl-phenyl)-amine]: below 100 nM. In the case of `Cc1cccc(C)c1Nc1cc(-c2nc(N3CCNCC3)c3c(C4CC4)cncc3n2)ccn1` [Example 541, [4-(5-Cyclopropyl-4-piperazin-1-yl-pyrido[3,4-d]pyrimidin-2-yl)-pyridin-2-yl]-(2,6-dimethyl-phenyl)-amine], the IC50 is below 100 nM. Regarding `Clc1cccc(Nc2cc(-c3nc(N4CCNCC4)c4c(C5CC5)cncc4n3)ccn2)c1Cl` [Example 542, [4-(5-Cyclopropyl-4-piperazin-1-yl-pyrido[3,4-d]pyrimidin-2-yl)-pyridin-2-yl]-(2,3-dichloro-phenyl)-amine], the 50% inhibitory concentration (IC50) lay in the range of 100 to 1000 nM. Next, `Cc1ncccc1Nc1cc(-c2nc(N3CCNCC3)c3c(C4CC4)cncc3n2)ccn1` [Example 544, [4-(5-Cyclopropyl-4-piperazin-1-yl-pyrido[3,4-d]pyrimidin-2-yl)-pyridin-2-yl]-(2-methyl-pyridin-3-yl)-amine]: below 100 nM; `c1cnnc(Nc2cc(-c3nc(N4CCNCC4)c4c(C5CC5)cncc4n3)ccn2)c1` [Example 545, [4-(5-Cyclopropyl-4-piperazin-1-yl-pyrido[3,4-d]pyrimidin-2-yl)-pyridin-2-yl]-pyridazin-3-yl-amine]: below 100 nM. Turning to `Cc1ccc(Nc2cc(-c3nc(N4CCNCC4)c4c(C5CC5)cncc4n3)ccn2)cn1` [Example 546, [4-(5-Cyclopropyl-4-piperazin-1-yl-pyrido[3,4-d]pyrimidin-2-yl)-pyridin-2-yl]-(6-methyl-pyridin-3-yl)-amine], the IC50 is below 100 nM. For the molecule `COc1ccc(Nc2cc(-c3nc(N4CCNCC4)c4c(C5CC5)cncc4n3)ccn2)cn1` [Example 547, [4-(5-Cyclopropyl-4-piperazin-1-yl-pyrido[3,4-d]pyrimidin-2-yl)-pyridin-2-yl]-(6-methoxy-pyridin-3-yl)-amine], the half-maximal inhibitory concentration (IC50) was below 100 nM. The value for `Fc1ccc(F)c(Nc2cc(-c3nc(N4CCNCC4)c4c(C5CC5)cncc4n3)ccn2)n1` [Example 548, [4-(5-Cyclopropyl-4-piperazin-1-yl-pyrido[3,4-d]pyrimidin-2-yl)-pyridin-2-yl]-(3,6-difluoro-pyridin-2-yl)-amine] was below 100 nM. Next, `CP(C)(=O)c1ccc(Nc2cc(-c3nc(N4CCNCC4)c4c(C5CC5)cncc4n3)ccn2)cc1` [Example 549, [4-(5-Cyclopropyl-4-piperazin-1-yl-pyrido[3,4-d]pyrimidin-2-yl)-pyridin-2-yl]-[4-(dimethyl-phosphinoyl)-phenyl]-amine]: below 100 nM; `CCP(=O)(CC)c1ccc(Nc2cc(-c3nc(N4CCNCC4)c4c(C5CC5)cncc4n3)ccn2)cc1` [Example 550, [4-(5-Cyclopropyl-4-piperazin-1-yl-pyrido[3,4-d]pyrimidin-2-yl)-pyridin-2-yl]-[4-(diethyl-phosphinoyl)-phenyl]-amine]: below 100 nM; `CN(C)c1ccc(Nc2cc(-c3nc(N4CCNCC4)c4c(C5CC5)cncc4n3)ccn2)cn1` [Example 551, N^5-[4-(5-Cyclopropyl-4-piperazin-1-yl-pyrido[3,4-d]pyrimidin-2-yl)-pyridin-2-yl]-N^2,N^2-dimethyl-pyridine-2,5-diamine]: below 100 nM. Next, `FC[C@H]1CN(c2nc(-c3ccnc(Nc4ccccc4)c3)nc3cncc(C4CC4)c23)CCN1` [Example 552, {4-[5-Cyclopropyl-4-((R)-3-fluoromethyl-piperazin-1-yl)-pyrido[3,4-d]pyrimidin-2-yl]-pyridin-2-yl}-phenyl-amine]: below 100 nM. For the molecule `COc1ccc(C)c(Nc2cc(-c3nc(N4CCNCC4)c4c(C5CC5)cncc4n3)ccn2)c1` [Example 553, [4-(5-Cyclopropyl-4-piperazin-1-yl-pyrido[3,4-d]pyrimidin-2-yl)-pyridin-2-yl]-{5-methoxy-2-methyl-phenyl)-amine], the IC50 was below 100 nM. The value for `Cc1ccc(C(F)(F)F)cc1Nc1cc(-c2nc(N3CCNCC3)c3c(C4CC4)cncc3n2)ccn1` [Example 554, [4-(5-Cyclopropyl-4-piperazin-1-yl-pyrido[3,4-d]pyrimidin-2-yl)-pyridin-2-yl]-(2-methyl-5-trifluoromethyl-phenyl)-amine] was 100 to 1000 nM; that for `Fc1ccc(OC(F)(F)F)cc1Nc1cc(-c2nc(N3CCNCC3)c3c(C4CC4)cncc3n2)ccn1` [Example 555, [4-(5-Cyclopropyl-4-piperazin-1-yl-pyrido[3,4-d]pyrimidin-2-yl)-pyridin-2-yl]-(2-fluoro-5-trifluoromethoxy-phenyl)-amine] was 100 to 1000 nM.

On to `CS(=O)(=O)c1ccc(F)c(Nc2cc(-c3nc(N4CCNCC4)c4c(C5CC5)cncc4n3)ccn2)c1` [Example 556, [4-(5-Cyclopropyl-4-piperazin-1-yl-pyrido[3,4-d]pyrimidin-2-yl)-pyridin-2-yl]-(2-fluoro-5-methanesulfonyl-phenyl)-amine], for which the IC50 was below 100 nM. Next, `Cc1ccc(F)c(Nc2cc(-c3nc(N4CCNCC4)c4c(C5CC5)cncc4n3)ccn2)c1F` [Example 557, [4-(5-Cyclopropyl-4-piperazin-1-yl-pyrido[3,4-d]pyrimidin-2-yl)-pyridin-2-yl]-(2,6-difluoro-3-methyl-phenyl)-amine]: below 100 nM.
